The values that follow come from patent US20250171438A1 (Agios Pharmaceuticals, Inc., priority 2022, published 2025).

In the first assay the target is T1, human PAH with the R408W mutation (Homo sapiens, UniProt P00439, R408W).
T1 construct: expressed in transfected cells
T1 sequence (P00439 1-452 R408W): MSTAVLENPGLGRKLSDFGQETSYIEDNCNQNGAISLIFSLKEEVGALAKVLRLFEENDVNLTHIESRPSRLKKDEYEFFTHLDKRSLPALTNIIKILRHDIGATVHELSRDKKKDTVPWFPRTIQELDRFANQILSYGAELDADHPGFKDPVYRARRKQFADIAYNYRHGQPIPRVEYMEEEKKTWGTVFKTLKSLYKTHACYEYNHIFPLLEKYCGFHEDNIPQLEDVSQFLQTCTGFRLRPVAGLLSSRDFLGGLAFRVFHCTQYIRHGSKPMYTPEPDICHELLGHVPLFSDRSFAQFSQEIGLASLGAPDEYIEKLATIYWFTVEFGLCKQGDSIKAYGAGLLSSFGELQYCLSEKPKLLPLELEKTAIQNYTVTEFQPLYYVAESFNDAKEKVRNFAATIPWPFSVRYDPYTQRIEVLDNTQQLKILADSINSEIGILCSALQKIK
In words: Cell Based Phenylalanine Flux Assay. The conditions noted are these: A375 cells expressing human R408W PAH; 24 hrs compound incubation; 13C-Tyrosine by LC-MS; average where tested multiple times; read-out: AC50.
As usually defined, the AC50 is the midpoint of the concentration-response curve, whichever way the signal moves. For `O=C(c1ocnc1C1CC1)N1CCc2[nH]cnc2[C@@H]1c1nc2c(F)cccc2s1` [Example 1496, (R)-(4-cyclopropyloxazol-5-yl)(4-(4-fluorobenzo[d]thiazol-2-yl)-6,7-dihydro-1H-imidazo[4,5-c]pyridin-5(4H)-yl)methanone], the AC50 lay within 1 to 5 µM.

For `O=C(c1nc2ccccc2o1)N1CCc2[nH]cnc2[C@@H]1c1nc2ccccc2s1` [Example 1130, (R)-benzo[d]oxazol-2-yl(4-(benzo[d]thiazol-2-yl)-1,4,6,7-tetrahydro-5H-imidazo[4,5-c]pyridin-5-yl)methanone], the AC50 was 1 to 5 µM. On to `CN(C)Cc1ccc2c(C(=O)N3CCc4[nH]cnc4[C@@H]3c3nc4c(F)cccc4s3)cnn2c1` [Example 1620, (R)-(6-((dimethylamino)methyl)pyrazolo[1,5-a]pyridin-3-yl)(4-(4-fluorobenzo[d]thiazol-2-yl)-6,7-dihydro-1H-imidazo[4,5-c]pyridin-5(4H)-yl)methanone], for which the AC50 was more than 5 µM. As for `O=C(CCc1nccs1)N1CCc2[nH]cnc2[C@H]1c1nc(C2CC2)cs1` [Example 2147], the concentration at half-maximal activity (AC50) was more than 5 µM. In the case of `O=C(c1cnc(Cc2ccccc2)s1)N1CCc2[nH]cnc2[C@@H]1c1nc2ccccc2s1` [Example 1228, (R)-(4-(benzo[d]thiazol-2-yl)-6,7-dihydro-1H-imidazo[4,5-c]pyridin-5(4H)-yl)(2-benzylthiazol-5-yl)methanone], the concentration at half-maximal activity (AC50) was in the range of 1 to 5 µM. The same measure, in the same setting: the result for `O=C(c1cnco1)N1CCc2[nH]cnc2[C@H]1c1nc2ccccc2s1` [Example 1097] reads 0.5 to 1 µM; that for `CC(C)(C)c1ncoc1C(=O)N1CCc2[nH]cnc2[C@@H]1c1nc2c(F)cccc2s1` [Example 2182, (R)-(4-(tert-butyl)oxazol-5-yl)(4-(4-fluorobenzo[d]thiazol-2-yl)-6,7-dihydro-1H-imidazo[4,5-c]pyridin-5(4H)-yl)methanone], 1 to 5 µM; that for `O=C(N1CCC1)N1CCc2[nH]cnc2[C@H]1c1nc2ccccc2s1` [Example 1691, (S)-azetidin-1-yl(4-(benzo[d]thiazol-2-yl)-6,7-dihydro-1H-imidazo[4,5-c]pyridin-5(4H)-yl)methanone], less than 0.5 µM.

Turning to `O=C(c1nnc(-c2ccc(F)cc2F)o1)N1CCc2[nH]cnc2[C@H]1c1nc2c(F)cccc2s1` [Example 1876, (S)-(5-(2,4-difluorophenyl)-1,3,4-oxadiazol-2-yl)(4-(4-fluorobenzo[d]thiazol-2-yl)-6,7-dihydro-1H-imidazo[4,5-c]pyridin-5(4H)-yl)methanone], the concentration at half-maximal activity (AC50) is less than 0.5 µM. Take `O=C(C1CC1)N1CCc2[nH]cnc2[C@H]1c1nc2cccc(F)c2s1` [Example 1259, (S)-cyclopropyl(4-(7-fluorobenzo[d]thiazol-2-yl)-6,7-dihydro-1H-imidazo[4,5-c]pyridin-5(4H)-yl)methanone]: the half-maximal activity concentration (AC50) lay in the range of 0.5 to 1 µM. For the compound `Cc1cnc(CCC(=O)N2CCc3[nH]cnc3[C@@H]2c2nc3ccccc3s2)s1` [Example 1032, (R)-1-(4-(benzo[d]thiazol-2-yl)-6,7-dihydro-1H-imidazo[4,5-c]pyridin-5(4H)-yl)-3-(5-methylthiazol-2-yl)propan-1-one], the concentration at half-maximal activity (AC50) was more than 5 µM.

For `O=C(c1ncn2ccccc12)N1CCc2[nH]cnc2[C@@H]1c1nc2cc(F)ccc2s1` [Example 1106, (R)-(4-(5-fluorobenzo[d]thiazol-2-yl)-6,7-dihydro-1H-imidazo[4,5-c]pyridin-5(4H)-yl)(imidazo[1,5-a]pyridin-1-yl)methanone], the AC50 fell in the range of 1 to 5 µM. Turning to `O=C(CC1CC1)N1CCc2[nH]cnc2[C@@H]1c1nc2ccc(F)cc2s1` [Example 1118, (R)-2-cyclopropyl-1-(4-(6-fluorobenzo[d]thiazol-2-yl)-6,7-dihydro-1H-imidazo[4,5-c]pyridin-5(4H)-yl)ethanone], the AC50 was more than 5 µM. Same read-out and setting: the result for `O=C(c1nc(Cl)cs1)N1CCc2[nH]cnc2[C@H]1c1nc2ccccc2[nH]1` [Example 917, (S)-(4-(1H-benzo[d]imidazol-2-yl)-6,7-dihydro-1H-imidazo[4,5-c]pyridin-5(4H)-yl)(4-chlorothiazol-2-yl)methanone] reads 0.5 to 1 µM; that for `Cn1nc(C(F)(F)F)cc1C(=O)N1CCc2[nH]cnc2[C@@H]1c1nc2c(F)cccc2s1` [Example 1788, (R)-(4-(4-fluorobenzo[d]thiazol-2-yl)-6,7-dihydro-1H-imidazo[4,5-c]pyridin-5(4H)-yl)(1-methyl-3-(trifluoromethyl)-1H-pyrazol-5-yl)methanone], more than 5 µM; that for `Cc1csc(CCC(=O)N2CCc3[nH]cnc3[C@@H]2c2nc3ccccc3s2)n1` [Example 1080, (R)-1-(4-(benzo[d]thiazol-2-yl)-6,7-dihydro-1H-imidazo[4,5-c]pyridin-5(4H)-yl)-3-(4-methylthiazol-2-yl)propan-1-one], more than 5 µM. Turning to `Cc1nc(CCCN2CCOCC2)oc1C(=O)N1CCc2[nH]cnc2[C@@H]1c1nc2ccccc2s1` [Example 1702, (R)-(4-(benzo[d]thiazol-2-yl)-6,7-dihydro-1H-imidazo[4,5-c]pyridin-5(4H)-yl)(4-methyl-2-(3-morpholinopropyl)oxazol-5-yl)methanone], the AC50 is more than 5 µM. `O=C(CCC1CC1)N1CCc2[nH]cnc2[C@H]1c1nc2ccccc2s1` [Example 1021]: the half-maximal activity concentration (AC50) was less than 0.5 µM.

Turning to `O=C(c1cncs1)N1CCc2[nH]cnc2[C@@H]1c1nc2cccc(F)c2s1` [Example 1234, (R)-(4-(7-fluorobenzo[d]thiazol-2-yl)-6,7-dihydro-1H-imidazo[4,5-c]pyridin-5(4H)-yl)(thiazol-5-yl)methanone], the AC50 is 1 to 5 µM. `O=C(c1cnn2ccc(Cl)cc12)N1CCc2[nH]cnc2[C@H]1c1nc2ccc(Br)cc2[nH]1` [Example 965, (S)-(4-(6-bromo-1H-benzo[d]imidazol-2-yl)-6,7-dihydro-1H-imidazo[4,5-c]pyridin-5(4H)-yl)(5-chloropyrazolo[1,5-a]pyridin-3-yl)methanone]: the concentration at half-maximal activity (AC50) fell in the range of 1 to 5 µM. On the same count and under the same terms, the result for `O=C(c1conc1C(F)(F)F)N1CCc2[nH]cnc2[C@H]1c1nc2c(F)cccc2s1` [Example 1635, (S)-(4-(4-fluorobenzo[d]thiazol-2-yl)-6,7-dihydro-1H-imidazo[4,5-c]pyridin-5(4H)-yl)(3-(trifluoromethyl)isoxazol-4-yl)methanone] reads less than 0.5 µM; that for “(S)-(4-bromothiazol-5-yl)(4-(4- fluorobenzo[d]thiazol-2-yl)-6,7-dihydro-1H)- imidazo[4,5-c]pyridin-5(4H)-yl)methanone [Example 1617]”, less than 0.5 µM. For the compound `CC(C)(O)c1nc(C2CC2)c(C(=O)N2CCc3[nH]cnc3[C@H]2c2nc3c(F)cccc3s2)o1` [Example 1537, (S)-(4-cyclopropyl-2-(2-hydroxypropan-2-yl)oxazol-5-yl)(4-(4-fluorobenzo[d]thiazol-2-yl)-6,7-dihydro-1H-imidazo[4,5-c]pyridin-5(4H)-yl)methanone], the half-maximal activity concentration (AC50) is less than 0.5 µM. The same measure, in the same setting: the value for `CC(F)(F)c1ncc(C(=O)N2CCc3[nH]cnc3[C@H]2c2nc3c(F)cccc3s2)s1` [Example 1513] was less than 0.5 µM; that for `O=C(CCc1ncc(Cl)s1)N1CCc2[nH]cnc2[C@H]1c1nc2ccccc2[nH]1` [Example 996, (S)-1-(4-(1H-benzo[d]imidazol-2-yl)-1,4,6,7-tetrahydro-5H-imidazo[4,5-c]pyridin-5-yl)-3-(5-chlorothiazol-2-yl)propan-1-one] was 1 to 5 µM; that for `O=C(c1nnc(-c2ncccc2F)o1)N1CCc2[nH]cnc2[C@H]1c1nc2ccccc2s1` [Example 1710] was 1 to 5 µM.

As for `O=C(c1cnc(C(F)(F)F)s1)N1CCc2[nH]cnc2[C@H]1c1nc2ccccc2s1` [Example 1181], the half-maximal activity concentration (AC50) was in the range of 0.5 to 1 µM. In the case of `Cn1nc(Cl)nc1C(=O)N1CCc2[nH]cnc2[C@H]1c1nc2c(F)cccc2s1` [Example 1955], the AC50 is less than 0.5 µM.

The same assay, now with this note: A375 cells expressing human R408W PAH; 24 hrs with compound; 13C-Tyrosine by LC-MS; average where tested multiple times; read-out: AC50.
Turning to `O=C(Cc1nccs1)N1CCc2[nH]cnc2C1c1nc2cc(F)ccc2s1` (centres unmarked), the AC50 was more than 5 µM. Consider `O=C(N1CCC(c2ccccc2)C1)N1CCc2[nH]cnc2C1c1nc2ccccc2s1` (centres unmarked), for which the AC50 is more than 5 µM. `Cn1cc(-c2ncc(C(=O)N3CCc4[nH]cnc4[C@H]3c3nc4ccccc4[nH]3)s2)cn1` [(S)-(4-(1H-benzo[d]imidazol-2-yl)-6,7-dihydro-1H-imidazo[4,5-c]pyridin-5(4H)-yl)(2-(1-methyl-1H-pyrazol-4-yl)thiazol-5-yl)methanone]: the concentration at half-maximal activity (AC50) is more than 5 µM.

For `O=C(CCc1nnc(Br)s1)N1CCc2[nH]cnc2[C@H]1c1nc2ccccc2[nH]1` [(S)-1-(4-(1H-benzo[d]imidazol-2-yl)-1,4,6,7-tetrahydro-5H-imidazo[4,5-c]pyridin-5-yl)-3-(5-bromo-1,3,4-thiadiazol-2-yl)propan-1-one], the AC50 is 1 to 5 µM. Take `O=C(CCc1nc2ccccc2o1)N1CCc2[nH]cnc2C1c1nc2ccccc2[nH]1` (centres unmarked): the concentration at half-maximal activity (AC50) is more than 5 µM. Consider `Cc1ncsc1C(=O)N1CCc2[nH]cnc2C1c1nc2ccccc2s1` (centres unmarked), for which the half-maximal activity concentration (AC50) fell in the range of 1 to 5 µM. Consider `COc1ccc2c(C(=O)N3CCc4[nH]cnc4C3c3nc4ccccc4s3)cnn2c1` (centres unmarked), for which the AC50 is more than 5 µM.

On to `Cn1ncc(C(=O)N2CCc3[nH]cnc3C2c2nc3c(F)cccc3s2)c1C#N` (centres unmarked), for which the AC50 fell in the range of 1 to 5 µM. For `Cn1nc(N)cc1C(=O)N1CCc2[nH]cnc2C1c1nc2c(F)cccc2s1` (centres unmarked), the AC50 was 1 to 5 µM.

In the case of `CC(C)(C)CCC(=O)N1CCc2[nH]cnc2C1c1nc2ccc(F)cc2s1` (centres unmarked), the half-maximal activity concentration (AC50) fell in the range of 1 to 5 µM.
